According to US20190192485A1, “DOSAGE REGIMEN FOR THE TREATMENT OF ENDOMETRIOSIS” (MEREO BIOPHARMA 2 LIMITED, priority 2016, published 2019):
Converted amounts (≈) assume the structure as drawn.

Assays:
[1] = Toxicologic studies in dogs: plasma exposure after single and weekly oral dosing; format: in vivo
Text: (§1) Generally, the inter-animal variability in Cmax levels was small.

[2] = Single 1.0 mg dose with combined oral contraceptive in premenopausal women (PK interaction, safety)
Experimental: The study consisted of a 49-day screening period and four consecutive 28-day (menstrual) cycles.
For the combined oral contraceptive, 30 μg of ethinyl estradiol and 0.15 mg of levonorgestrel (Seasonique®) was used. Seasonique® is an oral contraceptive designed and approved for daily administration. The 84 blue-green tablets (30-μg ethinyl estradiol and 0.15 mg levonorgestrel) are packaged with seven yellow tablets containing 10-μg ethinyl estradiol to eliminate the hormone free interval.

aromatase [3] = target: T1, aromatase (Rattus norvegicus, UniProt P22443); details: once weekly administration, adult female rats; cited from earlier work
T1 construct: achieving medical castration in adult female rats; from tissue; host or cells: in vivo, adult female rats
T1 sequence (P22443 1-508): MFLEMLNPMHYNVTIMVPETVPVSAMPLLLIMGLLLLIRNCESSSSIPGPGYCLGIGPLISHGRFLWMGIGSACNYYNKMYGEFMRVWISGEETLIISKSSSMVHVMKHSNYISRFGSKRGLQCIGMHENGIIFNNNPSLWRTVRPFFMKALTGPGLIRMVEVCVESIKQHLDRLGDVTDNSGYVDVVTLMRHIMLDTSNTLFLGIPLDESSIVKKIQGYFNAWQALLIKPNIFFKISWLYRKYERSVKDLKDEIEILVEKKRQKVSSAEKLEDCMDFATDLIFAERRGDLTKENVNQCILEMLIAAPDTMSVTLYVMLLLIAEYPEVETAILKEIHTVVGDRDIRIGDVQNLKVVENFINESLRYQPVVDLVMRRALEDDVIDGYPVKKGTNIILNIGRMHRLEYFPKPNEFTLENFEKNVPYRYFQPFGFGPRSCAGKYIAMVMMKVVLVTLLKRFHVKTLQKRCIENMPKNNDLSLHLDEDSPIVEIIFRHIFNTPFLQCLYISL

aromatase [4] = target: T2, aromatase (Homo sapiens, UniProt P11511); assay: Low dose study in obese men with low testosterone, with PK/PD analyses of aromatase inhibition; format: in vivo
T2 construct: high levels of aromatase in the adipose tissue; from tissue; host or cells: in vivo, human subjects (aromatase of adipose tissue)
T2 sequence (P11511 1-503): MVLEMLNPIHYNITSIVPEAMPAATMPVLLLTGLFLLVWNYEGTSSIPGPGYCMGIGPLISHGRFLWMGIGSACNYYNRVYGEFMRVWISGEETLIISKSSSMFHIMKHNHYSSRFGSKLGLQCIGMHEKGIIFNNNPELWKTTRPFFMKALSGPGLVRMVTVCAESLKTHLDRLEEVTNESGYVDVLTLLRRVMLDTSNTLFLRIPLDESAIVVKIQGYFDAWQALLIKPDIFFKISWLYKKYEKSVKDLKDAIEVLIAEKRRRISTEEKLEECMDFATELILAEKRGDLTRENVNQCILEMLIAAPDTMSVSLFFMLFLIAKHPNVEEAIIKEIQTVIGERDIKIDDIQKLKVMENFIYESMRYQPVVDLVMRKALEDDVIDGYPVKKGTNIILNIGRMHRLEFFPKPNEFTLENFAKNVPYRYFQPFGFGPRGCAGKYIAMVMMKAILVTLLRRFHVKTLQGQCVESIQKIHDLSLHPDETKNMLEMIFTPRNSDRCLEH

aromatase [5] = target: T2, aromatase; details: microsomal fraction of human placenta; cited from earlier work
[6] = Single ascending dose study in pre- and post-menopausal women: safety, tolerability and PK; format: in vivo, human; details: for AUC(0-tlast) Mean / Cmax Mean / T1/2 Mean / Tmax Median: po
Text: The drug concentration in plasma and/or serum samples can be determined by a number of different ways, e.g. HPLC or LC-MS/MS analyses. […]
(§2) A minimal toxic dose (MTD) was not reached. […] Table 3 presents the PK parameters based on analysis of the concentration-time profile obtained from this study.

[7] = test system: estrone, estrone sulfate and estradiol; assay: Single ascending dose study in women: PD (estrogen suppression); format: in vivo, human
Text: as §2

testosterone levels = assay: Serum testosterone levels in male dogs after 1, 4 and 12 weeks of dosing; format: in vivo; details: all dose levels
Text: as §1

[8] = Tissue (fat) biopsy concentration versus plasma; format: in vivo; details: human fat biopsies, read-out: concentration in tissue (fat) relative to plasma/blood
[9] = female, human, in vivo, 0.01 mg
[10] = female, human, in vivo, 0.03 mg

## N#Cc1ccc(C(F)(c2ccc(C#N)cc2)n2cncn2)cc1 [CGP47645, 4,4′-[fluoro-(1-H-1,2,4-triazol-1-yl)methylene]bisbenzonitrile]
[1]; dogs
  difference in exposure (AUC and Cmax) between male and female dogs: no consistent difference
[1]; dogs, weekly oral dosing for 4 or 22 weeks versus single dose
  drug accumulation: no drug accumulation
[1]; male and female dogs, single and multiple doses, all dose levels
  increase in exposure (AUC and Cmax) with dose: generally proportional to the dose increase
[2]; in vivo
  safety of co-administration with continuously dosed COC: may be co-administered safely
[2]; in vivo, po
  pharmacokinetic parameters with COC compared with single ascending dose study without COC: similar
Aromatase [3]
  effective dose achieving medical castration: 3 mg/kg
Aromatase [4]; PK/PD analyses, plasma concentration
  average estimated IC40 for aromatase inhibition: 0.03 ng/mL
Aromatase [4]; PK/PD analyses, plasma concentration, read-out: average estimated IC90 for aromatase inhibition
  IC90: 0.27 ng/mL (≈ 0.89 nM)
Aromatase [4]; females and males with obesity-associated hypogonadotropic hypogonadism, blood levels below IC50
  lowest dose with effects on the aromatase-testosterone-estradiol pathway: 0.003 mg
Aromatase [5]
  mode of aromatase inhibition: competitive inhibitor
[6]; female, human, in vivo
  inter-subject variability: 10-30%
[6]; female, human, in vivo, Tmax
  Tmax: 0.5 to 2 h
[6]; female, human, in vivo, median Tmax
  Tmax: ≤ 1 h
[6]; [9]
  AUC(0-tlast) Mean: 1.4 ng·h/mL
  Cmax Mean: 0.2 ng/mL
  T1/2 Mean: 55.2 h
  Tmax Median: 1 h
[6]; [10]
  AUC(0-tlast) Mean: 24.1 ng·h/mL
  Cmax Mean: 0.4 ng/mL
  T1/2 Mean: 396 h
[6]; female, human, in vivo, 0.1 mg
  AUC(0-tlast) Mean: 116.2 ng·h/mL
  Cmax Mean: 1.7 ng/mL
  T1/2 Mean: 564 h
  Tmax Median: 1 h
[6]; female, human, in vivo, 0.3 mg
  Tmax Median: 1 h
[6]; female, human, in vivo, 1 mg
  Tmax Median: 1 h
[6]; female, human, in vivo, 3 mg
  Tmax Median: 1 h
[6]; human, in vivo
  dose dependence of half-life: directly dose dependent
  dose proportionality of Cmax and AUC: increased in a dose-proportional manner
[6]; in vivo
  difference in pharmacokinetics between post- and pre-menopausal women: No differences
[6]; single doses 0.01 mg through 20 mg, post-menopausal women
  minimal toxic dose (MTD): not reached
[7]; post-menopausal women, chemiluminescence or radioimmunoassay
  lowest single dose at which maximal estrogen suppression was observed: 0.1 mg
[7]; postmenopausal women
  lowest single dose at which transient estrogen suppression was seen: 0.01 mg
[7]; postmenopausal women, doses of 0.1 mg and 0.3 mg
  estrone suppression compared with letrozole: at least equal to letrozole
[7]; women, single ascending doses
  inhibition of estrone, estrone sulfate and estradiol: dose-dependent inhibition
Testosterone levels
  serum testosterone levels: dramatically elevated testosterone levels
[8]
  Kp: ≤ 10

## C#C[C@]1(O)CC[C@H]2[C@@H]3CCC4=CC(=O)CC[C@@H]4[C@H]3CC[C@@]21CC [levonorgestrel, reference compound]
[2]; Day 29, surgically sterile healthy premenopausal women, COC 30 μg ethinyl estradiol and 0.15 mg levonorgestrel
  steady state pharmacokinetic profile with 1 mg CGP47645 versus placebo: similar
